# Experimental data reported in patent publication US9833497B2, “Human originated EGF domain proteins and use of the same” (CHENGDU SOURCEBIO LIMITED-LIABILITY COMPANY, priority 2013, dated 2017).
# Key:
# Assay type in all cases: cell-based
# E. coli BL21 = experiment: MIC against Gram-negative bacteria: E. coli BL21
# Method in brief: (§1)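 Read-out is absence of bacterial growth, with MIC set at the lowest recombinant protein concentration achieving it. Bacteria, pre-grown in LB to McFarland 0.5 and resuspended, were exposed at 5×10^5 CFU/mL to two-fold diluted human EGF domain proteins in triplicate at 37° C, 175 rpm.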
# Proteus vulgaris = experiment: MIC against Gram-negative bacteria: Proteus vulgaris
# Method in brief: as §1
# Moraxella catarrhalis = experiment: MIC against Gram-negative bacteria: Moraxella catarrhalis
# Method in brief: as §1
# Klebsiella pneumonia = experiment: MIC against Gram-negative bacteria: Klebsiella pneumonia
# Method in brief: as §1
# E. coli DH5α = experiment: Antibacterial activity: MIC and growth curve against E. coli DH5α in 96-well plate; conditions: minimal inhibitory concentration against E. coli DH5α; 96-well plate, 5×10^5 CFU/mL, 37° C., judged after 8 h
# Method in brief: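 Log-phase DH5α (OD600 about 0.5, 37° C, 185 rpm in LB) was pelleted, resuspended in fresh LB and seeded at 5×10^5 CFU/mL with recombinant protein at 50, 25 and 12.5 μg/mL (two-fold series), in triplicate. Plates were shaken at 175 rpm, 37° C, and OD600 was read every 30 min. MIC was the lowest concentration with no growth.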
# Aeromonas hydrophila = experiment: MIC against Gram-negative bacteria: Aeromonas hydrophila
# Method in brief: as §1
# Enterobacter cloacae = experiment: MIC against Gram-negative bacteria: Enterobacter cloacae
# Method in brief: as §1
# Citrobacter diversus = experiment: MIC against Gram-negative bacteria: Citrobacter diversus
# Method in brief: as §1
# Pseudomonas aeruginosa = experiment: MIC against Gram-negative bacteria: Pseudomonas aeruginosa
# Method in brief: as §1
# Serratia marcescens = experiment: MIC against Gram-negative bacteria: Serratia marcescens
# Method in brief: as §1
# Proteus mirabilis = experiment: MIC against Gram-negative bacteria: Proteus mirabilis
# Method in brief: as §1
# [1] = 96-well plate, 5×10^5 CFU/mL, 37° C., 10 h
# [2] = E. coli BL21, 10 h cultivation at 37° C., 5×10^5 CFU/mL
# [3] = P. vulgaris, 10 h cultivation at 37° C., 5×10^5 CFU/mL
# [4] = M. catarrhalis, 10 h cultivation at 37° C., 5×10^5 CFU/mL
# [5] = K. pneumonia, 10 h cultivation at 37° C., 5×10^5 CFU/mL
# [6] = A. hydrophila, 10 h cultivation at 37° C., 5×10^5 CFU/mL
# [7] = E. cloacae, 10 h cultivation at 37° C., 5×10^5 CFU/mL
# [8] = C. diversus, 10 h cultivation at 37° C., 5×10^5 CFU/mL
# [9] = P. aeruginosa, 10 h cultivation at 37° C., 5×10^5 CFU/mL
# [10] = S. marcescens, 10 h cultivation at 37° C., 5×10^5 CFU/mL
# [11] = P. mirabilis, 10 h cultivation at 37° C., 5×10^5 CFU/mL
# [12] = 10 h cultivation at 37° C., 5×10^5 CFU/mL, two-fold serial dilution
substance,measurement,setting,value
PRT641 (QAEECGILNGCENGRCVRVQEGYTCDCFDGYHLDTAK; listed as Homo sapiens),MIC E. coli BL21,E. coli BL21; [1],25 µg/mL
same,MIC P. vulgaris,Proteus vulgaris; [1],12.5 µg/mL
same,MIC M. catarrhalis,Moraxella catarrhalis; [1],25 µg/mL
same,MIC K. pneumonia,Klebsiella pneumonia; [1],25 µg/mL
same,MIC,E. coli DH5α,50 µg/mL
same,MIC A. hydrophila,Aeromonas hydrophila; [1],25 µg/mL
same,MIC E. cloacae,Enterobacter cloacae; [1],50 µg/mL
same,MIC C. diversus,Citrobacter diversus; [1],12.5 µg/mL
same,MIC P. aeruginosa,Pseudomonas aeruginosa; [1],12.5 µg/mL
same,MIC S. marcescens,Serratia marcescens; [1],50 µg/mL
same,MIC P. mirabilis,Proteus mirabilis; [1],50 µg/mL
PRT1004 (LRPSCADSPCRNRATCQDSPQGPRCLCPTGYTGGSCQ; listed as Homo sapiens),MIC,"E. coli BL21; E. coli BL21, 10 h cultivation at 37° C.",100 µg/mL
same,MIC,"Proteus vulgaris; P. vulgaris, 10 h cultivation at 37° C.",25 µg/mL
same,MIC,"Moraxella catarrhalis; M. catarrhalis, 10 h cultivation at 37° C.",25 µg/mL
same,MIC,"Klebsiella pneumonia; K. pneumonia, 10 h cultivation at 37° C.",12.5 µg/mL
same,MIC,E. coli DH5α,50 µg/mL
same,MIC,"Aeromonas hydrophila; A. hydrophila, 10 h cultivation at 37° C.",25 µg/mL
same,MIC,"Enterobacter cloacae; E. cloacae, 10 h cultivation at 37° C.",50 µg/mL
same,MIC,"Citrobacter diversus; C. diversus, 10 h cultivation at 37° C.",12.5 µg/mL
same,MIC,"Pseudomonas aeruginosa; P. aeruginosa, 10 h cultivation at 37° C.",50 µg/mL
same,MIC,"Serratia marcescens; S. marcescens, 10 h cultivation at 37° C.",12.5 µg/mL
same,MIC,"Proteus mirabilis; P. mirabilis, 10 h cultivation at 37° C.",50 µg/mL
PRT766 (GKDQCAEGGHGCQHQCVNAWAMFHCTCNPGYKLAADNKSCL; listed as Homo sapiens),MIC (μg/mL) E. coli BL21,E. coli BL21; [2],50 µg/mL
same,MIC (μg/mL) P. vulgaris,Proteus vulgaris; [3],25 µg/mL
same,MIC (μg/mL) M. catarrhalis,Moraxella catarrhalis; [4],25 µg/mL
same,MIC (μg/mL) K. pneumonia,Klebsiella pneumonia; [5],12.5 µg/mL
same,MIC,E. coli DH5α,25 µg/mL
same,MIC (μg/mL) A. hydrophila,Aeromonas hydrophila; [6],25 µg/mL
same,MIC (μg/mL) E. cloacae,Enterobacter cloacae; [7],50 µg/mL
same,MIC (μg/mL) C. diversus,Citrobacter diversus; [8],12.5 µg/mL
same,MIC (μg/mL) P. aeruginosa,Pseudomonas aeruginosa; [9],25 µg/mL
same,MIC (μg/mL) S. marcescens,Serratia marcescens; [10],12.5 µg/mL
same,MIC (μg/mL) P. mirabilis,Proteus mirabilis; [11],50 µg/mL
PRT1425 (DIDECENGGFCSGVCHNLPGTFECICGPDSALARHIGTDCD; listed as Homo sapiens),MIC against E. coli BL21,"E. coli BL21; E. coli BL21, 5×10^5 CFU/mL, 10 h cultivation at 37° C.",50 µg/mL
same,MIC against P. vulgaris,"Proteus vulgaris; Proteus vulgaris, 5×10^5 CFU/mL, 10 h cultivation at 37° C.",12.5 µg/mL
same,MIC against M. catarrhalis,"Moraxella catarrhalis; Moraxella catarrhalis, 5×10^5 CFU/mL, 10 h cultivation at 37° C.",12.5 µg/mL
same,MIC against K. pneumonia,"Klebsiella pneumonia; Klebsiella pneumonia, 5×10^5 CFU/mL, 10 h cultivation at 37° C.",50 µg/mL
same,MIC,E. coli DH5α,12.5 µg/mL
same,MIC against A. hydrophila,"Aeromonas hydrophila; Aeromonas hydrophila, 5×10^5 CFU/mL, 10 h cultivation at 37° C.",12.5 µg/mL
same,MIC against E. cloacae,"Enterobacter cloacae; Enterobacter cloacae, 5×10^5 CFU/mL, 10 h cultivation at 37° C.",25 µg/mL
same,MIC against C. diversus,"Citrobacter diversus; Citrobacter diversus, 5×10^5 CFU/mL, 10 h cultivation at 37° C.",50 µg/mL
same,MIC against P. aeruginosa,"Pseudomonas aeruginosa; Pseudomonas aeruginosa, 5×10^5 CFU/mL, 10 h cultivation at 37° C.",12.5 µg/mL
same,MIC against S. marcescens,"Serratia marcescens; Serratia marcescens, 5×10^5 CFU/mL, 10 h cultivation at 37° C.",12.5 µg/mL
same,MIC against P. mirabilis,"Proteus mirabilis; Proteus mirabilis, 5×10^5 CFU/mL, 10 h cultivation at 37° C.",12.5 µg/mL
PRT1170 (RNSSCLPNPCHNGGTCVVNGESFTCVCKEGWEGPICA; listed as Homo sapiens),MIC E. coli BL21,E. coli BL21; [12],12.5 µg/mL
same,MIC P. vulgaris,Proteus vulgaris; [12],12.5 µg/mL
same,MIC M. catarrhalis,Moraxella catarrhalis; [12],50 µg/mL
same,MIC K. pneumonia,Klebsiella pneumonia; [12],12.5 µg/mL
same,MIC,E. coli DH5α,25 µg/mL
same,MIC A. hydrophila,Aeromonas hydrophila; [12],50 µg/mL
same,MIC E. cloacae,Enterobacter cloacae; [12],100 µg/mL
same,MIC C. diversus,Citrobacter diversus; [12],12.5 µg/mL
same,MIC P. aeruginosa,Pseudomonas aeruginosa; [12],25 µg/mL
same,MIC S. marcescens,Serratia marcescens; [12],25 µg/mL
same,MIC P. mirabilis,Proteus mirabilis; [12],12.5 µg/mL
PRT787 (RQICDCLNNSTCDHITGTCYCSPGWKGARCD; listed as Homo sapiens),MIC (μg/mL) E. coli BL21,E. coli BL21; [2],12.5 µg/mL
same,MIC (μg/mL) P. vulgaris,Proteus vulgaris; [3],25 µg/mL
same,MIC (μg/mL) M. catarrhalis,Moraxella catarrhalis; [4],50 µg/mL
same,MIC (μg/mL) K. pneumonia,Klebsiella pneumonia; [5],12.5 µg/mL
same,MIC,E. coli DH5α,12.5 µg/mL
same,MIC (μg/mL) A. hydrophila,Aeromonas hydrophila; [6],12.5 µg/mL
same,MIC (μg/mL) E. cloacae,Enterobacter cloacae; [7],12.5 µg/mL
same,MIC (μg/mL) C. diversus,Citrobacter diversus; [8],25 µg/mL
same,MIC (μg/mL) P. aeruginosa,Pseudomonas aeruginosa; [9],12.5 µg/mL
same,MIC (μg/mL) S. marcescens,Serratia marcescens; [10],12.5 µg/mL
same,MIC (μg/mL) P. mirabilis,Proteus mirabilis; [11],25 µg/mL
PRT643 (RVVICHLPCMNGGQCSSRDKCQCPPNFTGKLCQ; listed as Homo sapiens),MIC E. coli BL21,E. coli BL21; [1],25 µg/mL
same,MIC P. vulgaris,Proteus vulgaris; [1],25 µg/mL
same,MIC M. catarrhalis,Moraxella catarrhalis; [1],25 µg/mL
same,MIC K. pneumonia,Klebsiella pneumonia; [1],25 µg/mL
same,MIC,E. coli DH5α,12.5 µg/mL
same,MIC A. hydrophila,Aeromonas hydrophila; [1],25 µg/mL
same,MIC E. cloacae,Enterobacter cloacae; [1],12.5 µg/mL
same,MIC C. diversus,Citrobacter diversus; [1],50 µg/mL
same,MIC P. aeruginosa,Pseudomonas aeruginosa; [1],50 µg/mL
same,MIC S. marcescens,Serratia marcescens; [1],50 µg/mL
same,MIC P. mirabilis,Proteus mirabilis; [1],12.5 µg/mL
